Consider three molecules from patent US8524634B2, “Seed treatment with combinations of pyrethrins/pyrethroids and clothianidin” (priority 2000, dated 2013).

Common to all, as to type: in vivo
The subject of series [1] is black cutworm larvae. As to the kind of experiment: Protection of corn plants against black cutworm damage by seed treatment with tefluthrin, clothianidin and combinations; Colby synergy (Example 2). The conditions noted are these: for STAND REDUCTION (% at 10 days): 10 DAI; for Percent of Control: stand reduction as percent of untreated control. The procedure:
This example illustrates the efficacy of corn seed treatment with a combination of tefluthrin and clothianidin against plant damage by black cutworm.
Seed treatment formulations were prepared from RAZE® 2.5 FS formulation (available from Wilbur-Ellis Co.) containing 26.8% tefluthrin, and clothianidin, (E)-(N-[(2-chloro-5-thiazolyl)methyl]-N′-methyl-N″-nitroguanidine; CAS Registry number 210880-92-5. In addition, separate seed treatment formulations were prepared from each of the two insecticides alone. Corn seed was prepared and treated as described in Reference Example 1, except that the treatment levels of the active ingredients on the seeds was as shown in Table 3. Treated and untreated seeds were planted in tubs and cultivated as described in Example 1. The tubs were overhead irrigated until the plants were infested with black cutworm larvae.
The corn plants were infested at 12 DAP, as described in Reference Example 1, Plants were rated at 10 days after infestation (DAI) for the number of cut plants. The percent stand reduction due to plant cutting was calculated by dividing the number of cut plants into the number of plants present at infestation.
Whether a combination of insecticides provided synergy in protection against cutworm damage was calculated as described by Colby, Robert. S., in Weeds, 15(1):20-22 (1967). The threshold value (stated as % of control) for synergy of a combination was calculated as =(% of control for treatment A)*(% of control for treatment B)/100(n−1); where n=number of active ingredients in combination. A measured % of control value that is less than the threshold value indicates synergy of the combination. Threshold values for synergy were calculated for each of the combinations of Table 3, and the threshold values for synergy of combinations of the active ingredients at various levels are shown in Table 4.

The subject of series [2] is black cutworm larvae. In words: Black cutworm feeding damage on corn: lambda-cyhalothrin seed treatment vs tefluthrin soil granular treatments (Reference Example 1). The following applies: for Plant Defol. 3 DAI / Plant Defol. 7 DAI / Plant Defol. 10 DAI: rating 1=no damage, 10=complete defoliation. How it is done:
This example compares the efficacy of seed treatment with lambda-cyhalothrin (CAS #91465-08-6) to soil granular treatments with tefluthrin (CAS #79538-32-2) against feeding damage by black cutworm larvae on shoots and foliage.
(§1) A lambda-cyhalothrin seed treatment formulation was prepared by diluting the WARRIOR® T insecticide (Zeneca Ag Products, Wilmington, Del.), which contains 11.4% lambda-cyhalothrin as the active ingredient, into water as a carrier. This formulation was applied for one minute at room temperature to twenty-five grams of Pioneer corn seed (Cultivar PN3394) in a rotostatic seed treater at a rate of 125 g, 250 g or 500 g active ingredient (Al) to 100 kg seed. The treated seeds were allowed to sit uncapped for four to twenty-four hours before planting.
(§2) Treated and untreated seeds (Pioneer hybrid PN3394) were planted in a soil mix consisting of Dupo silt loam, 30% Perlite, 20% coarse sand (WB-10 grade) in six groups of tubs (20 in. L×15 in. W×8 in. D). Twelve seeds were planted per tub and three tubs were planted for each treatment regimen. Soil applications of FORCE® 3GR, which contains 3% tefluthrin granule as the active ingredient, were used for two sets of tubs containing untreated seeds. The FORCE 3GR was applied either in-furrow or incorporated into a 5 inch band on the soil surface at the time of planting. The tubs were overhead irrigated until the plants were infested with black cutworm larvae.
The rate of application for the FORCE 3GR was reported in units of grams of the active ingredient per hectare (g/ha), while the rate of application of the WARRIOR T to the seeds was reported in units of grams of the active ingredient per 100 kilograms of the seeds (g/100 kg). Although the conversion of one of these units to the other will vary somewhat according to the type of seed that is being used, the size and weight of the seed, and the density of planting that is used—among other things—an approximate conversion for corn seed can be carried out as follows. Assuming a seed application rate of lambda cyhalothrin of, for example, 125 g/100 kg of seed and a planting density of 15 lbs seed/ac, about 14.7 acres can be planted with 100 kg of the seed. This is an effective application rate of about 8.5 g of lambda cyhalthrin per acre. At 2.47 ac/ha, the seed treatment level of 125 g/100 kg is approximately equivalent to a surface banding treatment at about 21 g/ha.
The corn plants were infested at 12 DAP, which corresponds to late growth stage V1 by placing two black cutworm larvae at ¾ instar on the soil surface near the base of the plant. Plants were rated 3, 7 and 10 days after infestation (DAI) for the number of cut plants, as well as damage from leaf feeding. The percent stand reduction due to plant cutting was calculated by dividing the number of cut plants into the number of plants present at infestation. The foliar feeding injury was evaluated using a rating scale of 1=no damage and 10=complete defoliation.

The test system of series [3] is corn plants. As to the kind of experiment: Vigor rating of corn plants at 12 DAP as indication of phytotoxicity from seed or soil treatment (Reference Example 1). The conditions noted are these: rating 1 extremely low vigor, 10 highest. The procedure:
as §1, §2
At twelve days after planting (DAP) but before infestation, the overall health of each plant was rated by looking at emergence, height and appearance. This vigor rating gives an indication of any phytotoxicity from the seed or soil treatment. A rating of 1 indicates extremely low. vigor while 10 is the highest vigor rating.

Where [4] appears, read: seed treatment 125 g/100 kg seed.
[5] abbreviates: seed treatment 250 g/100 kg seed.
[6] abbreviates: seed treatment 500 g/100 kg seed.

`CN/C(=N\[N+](=O)[O-])NCc1cnc(Cl)s1` [Clothianidin, (E)-1-(2-chloro-1,3-thiazol-5-ylmethyl)-3-methyl-2-nitroguanidine]: the results for the “STAND REDUCTION (% at 10 days)” value in series [1] (seed treatment clothianidin 50 gm/100 kg seed) and in series [1] (seed treatment clothianidin 100 gm/100 kg seed) were 61.15% and 34.38%, respectively. Moreover, the figures for the “Percent of Control” value in series [1] (clothianidin 50 gm/100 kg seed) and in series [1] (clothianidin 100 gm/100 kg seed) were 61.2% and 34.4%, respectively.
As to `CC1(C)[C@H](C(=O)O[C@H](C#N)c2cccc(Oc3ccccc3)c2)[C@@H]1/C=C(\Cl)C(F)(F)F` [λ-cyhalothrin, [1 alpha (s), 3 alpha(z)]-cyano(3-phenoxyphenyl)methyl-3-(2-chloro-3,3,3-trifluoro-1-propenyl)-2,2-dimethylcyclopropane carboxylate], the “Plant Defol. 3 DAI” value in series [2] (setting [4]) worked out at 4.3; in series [2] (setting [5]) it was 3.7; in series [2] (setting [6]), 2.0. Further, the “Plant Defol. 7 DAI” value is on record as 5.0 in series [2] (setting [4]), 2.7 in series [2] (setting [5]) and 2.3 in series [2] (setting [6]). Besides, the “Plant Defol. 10 DAI” value was found to be 3.3 in series [2] (setting [4]), 1.7 in series [2] (setting [5]) and 1.0 in series [2] (setting [6]). In addition, the results for the “% Stand Reduct'n 3 DAI” value in series [2] (setting [5]) and in series [2] (setting [6]) were 3.0% and 0.0%, respectively. For the same molecule, the “% Stand Reduct'n 7 DAI” value in series [2] (setting [5]) is reported as 3.0%; in series [2] (seed treatment 250 g/100 kg seed, listed as lambda-cyhalothrin), 3%; in series [2] (setting [6]), 0.0%; in series [2] (seed treatment 500 g/100 kg seed, listed as lambda-cyhalothrin), 0%. Besides, the “% Stand Reduct'n 10 DAI” value is recorded as 3.0% in series [2] (setting [5]) and 0.0% in series [2] (setting [6]). Further, the results for the “Vigor at 12 DAP” value in series [3] (seed treatment 125 g AI/100 kg corn seed), in series [3] (seed treatment 250 g AI/100 kg corn seed) and in series [3] (seed treatment 500 g AI/100 kg corn seed) were 9.0, 8.3 and 8.3, respectively.
On to `Cc1c(F)c(F)c(COC(=O)[C@@H]2[C@H](/C=C(\Cl)C(F)(F)F)C2(C)C)c(F)c1F` (racemic) [Tefluthrin, (2,3,5,6-tetrafluoro-4-methylphenyl)-methyl-(1 alpha, 3 alpha)-(Z)-(±)-3-(2-chloro-3,3,3-trifluoro-1-propenyl)-2,2-dimethylcyclopropanecarboxylate], for which, in series [2] (banded 30 g/ha (FORCE 3GR)), the “Plant Defol. 3 DAI” value amounted to 1.7, the “% Stand Reduct'n 7 DAI” value was determined as 0.0%, the “Plant Defol. 7 DAI” value came out at 1.7 and the “% Stand Reduct'n 10 DAI” value stood at 0.0%. For the same molecule, the “Plant Defol. 10 DAI” value in series [2] (banded 30 g/ha (FORCE 3GR)) is listed as 0.3. In series [2] (banded 30 g/ha (FORCE 3GR, 5 inch soil surface band)), the “% Stand Reduct'n 3 DAI” value was found to be 0.0%. Moreover, in series [2] (in-furrow 30 g/ha (FORCE 3GR)), the “Plant Defol. 3 DAI” value was 5.0, the “% Stand Reduct'n 7 DAI” value is 48.0%, the “Plant Defol. 7 DAI” value was determined as 6.0 and the “% Stand Reduct'n 10 DAI” value is listed as 48.0%. In addition, the “Plant Defol. 10 DAI” value in series [2] (in-furrow 30 g/ha (FORCE 3GR)) turned out to be 5.3. The “Vigor at 12 DAP” value in series [3] (soil granule (FORCE 3GR) banded 30 g/ha) came out at 8.7. Also, the “Vigor at 12 DAP” value in series [3] (soil granule (FORCE 3GR) in-furrow 30 g/ha) is recorded as 9.0.
